Assay results as given in PubChem BioAssay (NCI).
Where “and” joins values, the source holds several entries; their conditions need not be identical. Identical values can stand only once.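 Where inhibition never reached the appropriate level, the endpoint shown equals the highest concentration tested. Otherwise, values were interpolated linearly from a five-concentration, 48-hour dose response in 96-well plates. Abbreviation: GI50, concentration required for 50% inhibition of growth. Definition used: TGI = concentration required for complete inhibition of growth.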

How the values were obtained:
Test in all cases: DTP human tumour cell line panel, 48 h
[1] = system: COLO 205 colon
[2] = system: KM20L2 colon
[3] = system: SK-MEL-5 melanoma
[4] = system: SN12C renal
[5] = system: TK-10 renal
[6] = system: A498 renal
[7] = system: DMS 114 small cell lung
[8] = system: SNB-78 CNS
[9] = system: BT-549 breast
[10] = system: NCI/ADR-RES ovarian

SMILES | TGI [1] | TGI [2] | TGI [3] | TGI [4] | TGI [5] | TGI [6] | TGI [7] | TGI [8] | GI50 [3] | GI50 [6] | GI50 [9] | TGI [9] | GI50 [1] | GI50 [7] | GI50 [2] | GI50 [10] | TGI [10] | GI50 [4] | GI50 [5]
COC[C@H](C)N=CN1CCc2ccccc2C1(Cc1ccccc1)Cc1ccccc1 | 34.6 µM | 24.7 µM | > 100 µM | 23.8 µM | 38.8 µM | – | – | – | – | – | – | – | – | – | – | – | – | – | –
CCN(CC)CCNc1ccc2nc(C)n3c4ccc(O)cc4c(=O)c1c23 | – | – | 15.6 µM | 12.4 µM | – | 13.3 µM | 10.4 µM | – | – | – | – | – | – | – | – | – | – | – | –
CCOC(=O)CNc1nnnn1C1OC(CO)C(O)C1O (stereo not given) | > 100 µM | > 100 µM | > 100 µM | > 100 µM | > 100 µM | > 100 µM | > 100 µM | > 100 µM | – | – | – | – | – | – | – | – | – | – | –
[O-]c1c2c(nn1-c1ccc(Cl)cc1)c1ccccc1c[n+]2Cc1ccccc1 | > 100 µM | > 100 µM | > 100 µM | > 100 µM | > 100 µM | – | > 100 µM | > 100 µM | – | – | – | – | – | – | – | – | – | – | –
C/C(=N\NC(=O)CC(=O)N(C(=O)c1ccc(Cl)cc1)c1ccc(C)cc1)c1ccccc1O | > 100 µM | > 100 µM | > 100 µM | > 100 µM | > 100 µM | > 100 µM | > 100 µM | > 100 µM | – | – | – | – | – | – | – | – | – | – | –
CCCCCCCCCCCCCB(O)O | > 100 µM | > 100 µM | > 100 µM | > 100 µM | > 100 µM | > 100 µM | > 100 µM | > 100 µM | > 100 µM and 45.4 µM | – | – | – | – | – | – | – | – | – | –
C[CH2][Sn]([CH2]C)([O]C(=O)c1ccc(OC)c(OC)c1OC)[O]C(=O)c1ccc(OC)c(OC)c1OC | > 100 µM | > 100 µM | > 100 µM | > 100 µM | > 68.2 µM | 44 µM | > 72.8 µM | – | 99.2 µM | 16.3 µM | 17.2 µM | 31.1 µM | 65.1 µM | 25.7 µM | > 100 µM | > 100 µM | > 100 µM | 99.8 µM | 52.6 µM
c1ccc(N/N=C2\NN=C(c3ccccc3)CS2)cc1 | – | 22.8 µM | – | – | 26.5 µM | 25.8 µM | – | 34.2 µM | – | – | – | – | – | – | – | – | – | – | –
CCCCN(CCCC)CCCn1cnc2ncccc2c1=O | > 100 µM | > 100 µM | > 100 µM | > 100 µM | > 100 µM | – | > 100 µM | > 100 µM | – | – | – | – | – | – | – | – | – | – | –
COC(=O)C(=O)C(C(=O)C(=O)Nc1cc(C)ccc1C)c1nc2ccc(C(=O)c3ccccc3)cc2[nH]c1=O (stereo not given) | > 100 µM | > 100 µM | > 100 µM | > 100 µM | > 100 µM | – | > 100 µM | > 100 µM | – | – | – | – | – | – | – | – | – | – | –
C[Si](C)(C)C(Sc1ccccc1)(Sc1ccccc1)Sc1ccccc1 | > 100 µM | > 100 µM | > 100 µM | > 100 µM | > 100 µM | > 100 µM | > 100 µM | > 100 µM | – | – | – | – | – | – | – | – | – | – | –
O=C1C2C3C=CC(C2C(=O)N1CN1CCSCC1)C1C2C(=O)N(CN4CCSCC4)C(=O)C2C31 (stereo not given) | 97.8 µM | > 100 µM | > 100 µM | > 100 µM | > 100 µM | > 100 µM | > 56.1 µM | > 100 µM | – | – | – | – | – | – | – | – | – | – | –
COC(=O)/C(=N\NC(N)=O)C(C(=O)C=C(C)C)C(=O)C(=O)Nc1ccc(Cl)c(Cl)c1 (stereo not given) | > 100 µM | > 100 µM | > 100 µM | > 100 µM | > 100 µM | > 100 µM | > 100 µM | > 100 µM | – | – | – | – | – | – | – | – | – | – | –
CC1C2CC=CC(=O)[C@@]2(C)CCC12OCCO2 (stereo not given in full) | – | > 100 µM | 65.4 µM | > 100 µM | > 100 µM | > 100 µM | > 100 µM | > 100 µM | – | – | – | – | – | – | – | – | – | – | –
O=c1cc(-c2ccccc2)[nH]c2cc(Cl)ccc12 | 2.82 µM | 3.2 µM | 19.6 µM | 82.3 µM | > 100 µM | > 100 µM | 3.29 µM | > 100 µM | – | – | – | – | – | – | – | – | – | – | –
CCOCc1cc(=O)c2c(OC)cc3c(c2o1)CCC(C)(C)O3 | – | > 100 µM | > 100 µM | > 100 µM | > 100 µM | – | – | > 100 µM | – | – | – | – | – | – | – | – | – | – | –
CC1CC[P+](c2ccccc2)(c2ccccc2)CC1 | > 100 µM | > 100 µM | 51.1 µM | > 100 µM | > 100 µM | > 100 µM | > 100 µM | > 100 µM | – | – | – | – | – | – | – | – | – | – | –
COc1cc(/C=C2/C(=O)N(C(=O)OCc3ccccc3)C(Cc3cc(OC)c(OC)c(C)c3OC)C(=O)N2Cc2ccccc2)c(OC)c(C)c1OC (stereo not given) | > 100 µM | > 100 µM | 65.9 µM | > 100 µM | > 100 µM | > 100 µM | > 100 µM | – | – | – | – | – | – | – | – | – | – | – | –
CCN=C(C#N)NCC | > 100 µM | > 100 µM | > 100 µM | > 100 µM | > 100 µM | > 100 µM | 92 µM | > 100 µM | – | – | – | – | – | – | – | – | – | – | –
CCc1cccc(C)c1NC(=S)NC(=O)c1ccccc1C(=O)NC(=S)Nc1c(C)cccc1CC | > 100 µM | > 100 µM | > 100 µM | > 100 µM | > 100 µM | > 100 µM | 70.8 µM | > 100 µM | – | – | – | – | – | – | – | – | – | – | –
COc1cc2c(cc1C)NC(=O)/C2=C\c1c[nH]c2ccccc12 | > 100 µM | – | 30.5 µM | 27.7 µM | 46.5 µM | 26.9 µM | – | – | 14.9 µM | 11.2 µM | 17.4 µM | 36.3 µM | 16.6 µM | – | – | 13 µM | 47.6 µM | 11.6 µM | 14.1 µM
Cc1ccccc1C1CC(c2ccccc2)=NO1 (stereo not given) | > 100 µM | > 100 µM | > 100 µM | > 100 µM | > 100 µM | > 100 µM | > 100 µM | > 100 µM | – | – | – | – | – | – | – | – | – | – | –
C=C(CCCO)[C@@H]1CC[C@@](C)(O)[C@H]1C | > 100 µM | > 100 µM | > 100 µM | > 100 µM | > 100 µM | – | > 100 µM | > 100 µM | – | – | – | – | – | – | – | – | – | – | –
CN(C)c1ccc2nc(CC(O)(C(F)(F)F)C(F)(F)F)ccc2c1 | > 10 µM | – | > 10 µM | > 10 µM | > 10 µM | > 10 µM | – | – | – | – | – | > 10 µM | – | – | – | – | > 10 µM | – | –
O=[N+]([O-])c1cc2c([N+](=O)[O-])cccc2o1 | 16.5 µM | – | 33.2 µM | 27.9 µM | 23.8 µM | 43.5 µM | – | – | – | – | – | 31.9 µM | – | – | – | – | 32.6 µM | – | –
